The data set in a line: Clearance in rat at […], iv. Further details: dose 0.58 mg/kg, route intravenous. In kind it is ADME, organism-based. The following applies: in vivo.

SMILES strings stand for the structures.

These results are taken from ChEMBL document CHEMBL2069281, “2-Phenylamino-6-cyano-1H-benzimidazole-based isoform selective casein kinase 1 gamma (CK1γ) inhibitors” (Bioorg Med Chem Lett, 2012).

By clearance is commonly meant a measure of how efficiently the substance is removed, as volume per time. In the case of `CC(C)(C)c1ccc(Nc2nc3ccc(C#N)cc3[nH]2)cc1`, the clearance is 108 mL/min/kg.
